Results on one compound are retold here after PMC4393181, “The Chemopotential Effect of Annona muricata Leaves against Azoxymethane-Induced Colonic Aberrant Crypt Foci in Rats and the Apoptotic Effect of Acetogenin Annomuricin E in HT-29 Cells: A Bioassay-Guided Approach” (PLoS ONE, 2015).

≈ marks a conversion by molar mass, not a printed value. Where two headings read alike, the source gives them in different places.

In general, IC50 refers to the midpoint of a concentration-inhibition curve.

For experiment [1], the system named is HT-29 (human colon cancer cells). In words: MTT assay on HT-29 cells. The class given is cell-based. The following applies: Homo sapiens, mean ± SEM of three experiments, read-out: IC50. The protocol: (§1) CCD841 (normal human colon epithelial cells) and HT-29 (human colon cancer cells) were purchased from the American Type Cell Collection (ATCC, Manassas, VA, USA). The cells were maintained at 37°C in a humidified atmosphere of 5% CO2. The culture medium consisted of Dulbecco’s Modified Eagles medium (Sigma) that was supplemented with 10% Fetal Bovine Serum (PAA Laboratories, Pasching, […]), 100 μg/ml streptomycin (Sigma) and 100 U/ml penicillin (Sigma). The untreated medium containing 0.1% vehicle DMSO was applied as the negative control for all of the assays in the in vitro study.
(§2) Cell viability analysis was performed using the MTT assay as described previously. In brief, cells (5 × 10^4 cells/ml) at the exponential phase of growth were seeded in a 96-well plate and treated with serial concentrations of the tested agent (0.62, 1.25, 2.5, 5, 10, 20, 40 and 80 μg/ml) for 12, 24 and 48 h. 5-FU, a standard anticancer drug, was used as a positive control in this assay. After incubation, 20 μl of the MTT solution (5.0 mg/ml, Sigma) was loaded into each well, and the cells were further incubated at 37°C for 4 h. DMSO (150 μl) was then used to dissolve the formazan crystals. The cytotoxicity against cancer and normal cells was measured at the absorbance of 570 nm using an ELISA reader (Asys UVM340, Eugendorf, Austria). The data were then processed, and the antiproliferative potential of the tested agents was expressed as IC50 values, the concentration that causes a 50% inhibition of cell growth.
A general note: Tetrazolium dyes change colour on reduction, which living cells bring about.

Experiment [2] concerns Bax. The experiment in a line: Immunohistochemistry of colon tissue sections for Bax. The following applies: AOM-induced rats; EEAML both doses (250 and 500 mg/kg), 5-FU 35 mg/kg. The class given is in vivo, Sprague Dawley rats. The protocol:
(§3) Immunohistochemical evaluation of proliferating cell nuclear antigen (PCNA), Bax and Bcl-2 proteins was performed on deparaffinized tissue sections using the commercial Dako ARK Peroxidase kit (DAKO, Carpinteria, CA, USA) according to the vendor’s instructions. In brief, the antigen retrieval process of tissue sections was performed using 10 mM citrate buffer (pH 6.0); the tissue sections were then washed with PBS and blocked with peroxidase blocking buffer. Next, the tissue sections were incubated with diluted mouse PCNA (1:100, Cat: ab2426), Bax (1:100, Cat: ab7977) and Bcl-2 (1:100, Cat: ab7973) antibodies (Abcam, Cambridge, MA, USA) for 15 min. All of the slides were then incubated with the appropriate amount of streptavidin-HRP for 30 min at room temperature. The slides were developed with a diaminobenzidine (DAB) substrate-chromogen system and were counterstained in hematoxylin. The measurement of the PCNA labeling index (PI) was calculated using the formula below.

The test system of experiment [3] is PCNA. The experiment in a line: Immunohistochemistry of colon tissue sections, PCNA labeling index. The following applies: 5-FU 35 mg/kg, colon tissue of AOM-induced rats (cancer control PI 81%, negative control 4%). The class given is in vivo, Sprague Dawley rats. On the procedure: as §3
PI = number of positive cells/total number of epithelial cells ×100

The subject of experiment [4] is AOM-induced colonic ACF. The experiment in a line: Counting of AOM-induced colonic aberrant crypt foci (methylene blue staining). The class given is in vivo, Sprague Dawley rats. The following applies: group E. The protocol: The experiment was performed as previously described in detail. Thirty male rats (n = 6 per group) in five groups (negative control, cancer control, low dose of EEAML, high dose of EEAML and treatment control) were subcutaneously injected once a week for two consecutive weeks according to the “Induction” column in Table 1. Then, all of the rodents were orally fed once a day for two months based on the experimental design (Table 1), except for the treatment control group, which was intra-peritoneally injected with 35 mg/kg of 5-FU (Sigma, St. Louis, MO, USA) for five consecutive days. The condition of the animals was observed every morning throughout the experimental period.
To determine the intensity of colonic ACF formation after 10 weeks of injection with AOM, ACF counting was performed as previously described in detail. In brief, rats were anesthetized with a high dose of ketamine (30 mg/kg, 100 mg/mL) and xylazine (3 mg/kg, 100 mg/mL) under aseptic conditions. The excised colon was flushed with phosphate buffered saline (PBS, Sigma), opened longitudinally and fixed flat between filter papers overnight at 4°C using 10% buffered formalin. Equal lengths of the proximal and distal portions of the fixed colons were stained with 0.5% methylene blue solution. After washing away the excess stain, topographic analysis was performed under a light microscope (Nikon, Tokyo, Japan) to score the total number of ACF, as well as the number of crypts per focus.

Experiment [5] concerns Bcl-2. In words: Immunohistochemistry of colon tissue sections for Bcl-2. The class given is in vivo, Sprague Dawley rats. The following applies: AOM-induced rats; EEAML both doses (250 and 500 mg/kg), 5-FU 35 mg/kg. On the procedure:
as §3

Experiment [6] relates to CCD841 (normal human colon epithelial cells). In words: MTT assay on CCD841 cells. The class given is cell-based. The following applies: Homo sapiens, mean ± SEM of three experiments, read-out: IC50. The protocol:
as §1, §2

Where [7] appears, read: 5-FU 35 mg/kg intra-peritoneally for five consecutive days, AOM-induced rats.

With `O=c1[nH]cc(F)c(=O)[nH]1` [5-FU, 5-fluorouracil], the concentration for half-maximal inhibition (IC50) was determined as 4.85 ± 0.38 µg/mL (≈ 37.3 µM) in experiment [1] (HT-29, 12 h); 2.96 ± 0.43 µg/mL (≈ 22.8 µM) in experiment [1] (HT-29, 24 h); 1.5 ± 0.17 µg/mL (≈ 11.5 µM) in experiment [1] (HT-29, 48 h); 58.5 ± 2.09 µg/mL (≈ 450 µM) in experiment [6] (CCD-841, CCD841, 12 h); 44.4 ± 2.25 µg/mL (≈ 341 µM) in experiment [6] (CCD-841, CCD841, 24 h); 36.3 ± 0.43 µg/mL (≈ 279 µM) in experiment [6] (CCD-841, CCD841, 48 h). Further, the “Bax expression in colon tissues” value in experiment [2] is reported as “up-regulation”. The “PCNA labeling index (PI)” value in experiment [3] is reported as 24%. In addition, the “No. of crypts per ACF: 1 crypt” value in experiment [4] (setting [7]) is on record as 12 ± 0.26. Further, the “No. of crypts per ACF: 2 crypt” value in experiment [4] (setting [7]) is reported as 6 ± 0.45. The “No. of crypts per ACF: 3 crypt” value in experiment [4] (setting [7]) is listed as 7 ± 0.78. Moreover, the “No. of crypts per ACF: 4 crypt and more” value in experiment [4] (setting [7]) is recorded as 4 ± 0.18. The “Total ACF” value in experiment [4] (setting [7]) was determined as 29 ± 1.40. Further, the “Inhibition of ACF formation” value in experiment [4] (5-FU 35 mg/kg intra-peritoneally, compared with cancer control) is 79.5%. The “Bcl-2 expression in colon tissues” value in experiment [5] is on record as “down-regulation”.
